{"source": "paper PMC9482650", "about": "“Quantitative fragmentomics allow affinity mapping of interactomes” (Nature Communications, 2022)", "key": {"[1]": {"test_system": "MAGI1", "experiment": "PBM-AP-MS from Jurkat extract", "type": "binding, Homo sapiens", "conditions": "prey MAGI1, PBM peptide bait", "procedure": "(§1) For PBM-AP-MS experiments, 30 μl streptavidin resin was mixed with biotin or peptide at 50–60 μM concentration in 6–6.5 resin volume for 60 min to achieve resin saturation. For PDZ-AP-MS experiments, 30 μl streptavidin resin was mixed with biotinylated MBP or MBP-PDZ at 40-50 μM concentration in >1000× resin volume for 60 min to achieve resin saturation. After saturation, resins were washed a single time (ten resin volume, holdup buffer), and were depleted with biotin (1 mM biotin, 5–10 resin volume, 10 min). Finally, resins were washed two times. 0.5 ml 2 mg/ml cell lysate was added to the dry resin (1 mg total input) and were incubated at 4 °C for 2 h. Then, the beads were washed three times with 10 resin volume buffer containing: 50 mM TRIS pH 8.5, 150 mM NaCl, 1% TritonX-100, 10× complete EDTA-free protease inhibitor cocktail, 2 mM EDTA, 1 mM TCEP. Then, the beads were washed two times with ten resin volume buffer containing: 50 mM TRIS pH 8.5, 150 mM NaCl, 1 mM TCEP. Finally, captured protein was eluted from the resin in two steps and the eluted fractions were pooled. For each elution the beads were incubated for 30 min with three resin volume buffer containing: 20 mM TRIS pH8.5, 100 mM NaCl, 500 μM TCEP, 8 M Urea. Between each step, the beads were separated by mild centrifugation and the supernatant was removed by gentle pipetting.\n(§2) Proteins were identified by database searching using SequestHT (Thermo Fisher Scientific) with Proteome Discoverer 2.4 software (PD2.4, Thermo Fisher Scientific) on human FASTA database downloaded from SwissProt (reviewed, release 2020_11_27, 20304 entries, https://www.uniprot.org/). Precursor and fragment mass tolerances were set at 7 ppm and 0.6 Da respectively, and up to two missed cleavages were allowed. Oxidation (M, +15.995 Da) was set as variable modification, and Carbamidomethylation (C, +57.021 Da) as fixed modification. Peptides and proteins were filtered with a false discovery rate at 1%. Label-free quantification was based on the extracted ion chromatography intensity of the peptides. All samples were measured in technical triplicates. The measured extracted ion chromatogram (XIC) intensities were normalized based on median intensities of the entire dataset to correct minor loading differences. For statistical tests and enrichment calculations, not detectable intensity values were treated with an imputation method, where the missing values were replaced by random values similar to the 10% of the lowest intensity values present in the entire dataset. Unpaired two-tailed T-test, assuming equal variance, were performed on obtained log2 XIC intensities. The detection threshold for enriched proteins in AP-MS experiments were analyzed above twofold enrichment with <0.01 P value. Then, proteins with PDZ-domains or PBMs were extracted from the list of enriched proteins. In case only a specific isoform of the detected protein contains a PBM, the identified peptide fragments were manually checked to check which isoform(s) were most likely detected. All raw LC-MS/MS data (from 165 runs) have been deposited to the ProteomeXchange via the PRIDE database with identifier PXD027743."}, "[2]": {"test_system": "LIN7C", "experiment": "PBM-AP-MS from Jurkat extract", "type": "binding, Homo sapiens", "conditions": "prey LIN7C, PBM peptide bait", "procedure": "as §1, §2"}, "[3]": {"test_system": "SCRIB", "experiment": "PBM-AP-MS from Jurkat extract", "type": "binding, Homo sapiens", "conditions": "prey SCRIB, PBM peptide bait", "procedure": "as §1, §2"}, "[4]": {"test_system": "HeLa cell extract preys", "experiment": "PBM-AP-MS, PBM peptide baits", "type": "binding, human"}}, "note": "Ends that are not written are not given here. * marks the point of attachment. Biotin = O=C1N[C@H]2[C@H](CS[C@H]2CCCCC(=O)*)N1; ttds = NCCCOCCOCCOCCCNC(=O)CCC(=O)*", "data": [{"substance": "HPV35E6 ({Biotin-ttds}-SKPTRRETEV)", "values": [{"measurement": "Enrichment values compared to biotin controls", "setting": "[1]", "result": 54.3}, {"measurement": "Enrichment values compared to biotin controls", "setting": "[2]", "result": 34.7}, {"measurement": "Enrichment values compared to biotin controls", "setting": "[3]", "result": 314.5}, {"measurement": "Enrichment values compared to biotin controls", "setting": "[4]; prey AHNAK, PBM peptide bait", "result": 0.9}, {"measurement": "Enrichment values compared to biotin controls", "setting": "[4]; prey ARHGAP21, PBM peptide bait", "result": 1.3}, {"measurement": "Enrichment values compared to biotin controls", "setting": "[4]; prey ARHGEF12, PBM peptide bait", "result": 1.1}, {"measurement": "Enrichment values compared to biotin controls", "setting": "[4]; prey CASK, PBM peptide bait", "result": 4.9}, {"measurement": "Enrichment values compared to biotin controls", "setting": "[4]; prey DLG1, PBM peptide bait", "result": 6.4}, {"measurement": "Enrichment values compared to biotin controls", "setting": "[4]; prey DLG3, PBM peptide bait", "result": 5.8}, {"measurement": "Enrichment values compared to biotin controls", "setting": "[4]; prey DLG5, PBM peptide bait", "result": 1.3}, {"measurement": "Enrichment values compared to biotin controls", "setting": "[4]; prey DVL2, PBM peptide bait", "result": 0.8}, {"measurement": "Enrichment values compared to biotin controls", "setting": "[4]; prey GOPC, PBM peptide bait", "result": 1.4}, {"measurement": "Enrichment values compared to biotin controls", "setting": "[4]; prey HTRA1, PBM peptide bait", "result": 2.0}, {"measurement": "Enrichment values compared to biotin controls", "setting": "[4]; prey InaDl, PBM peptide bait", "result": 1.3}, {"measurement": "Enrichment values compared to biotin controls", "setting": "[4]; prey LAP2, PBM peptide bait", "result": 1.4}, {"measurement": "Enrichment values compared to biotin controls", "setting": "[4]; prey LIN7C, PBM peptide bait", "result": 131.1}, {"measurement": "Enrichment values compared to biotin controls", "setting": "[4]; prey LMO7, PBM peptide bait", "result": 2.0}, {"measurement": "Enrichment values compared to biotin controls", "setting": "[4]; prey MPDZ, PBM peptide bait", "result": 2.5}, {"measurement": "Enrichment values compared to biotin controls", "setting": "[4]; prey MPP5, PBM peptide bait", "result": 4.0}, {"measurement": "Enrichment values compared to biotin controls", "setting": "[4]; prey MPP6, PBM peptide bait", "result": 1.1}, {"measurement": "Enrichment values compared to biotin controls", "setting": "[4]; prey MPP7, PBM peptide bait", "result": 11.7}, {"measurement": "Enrichment values compared to biotin controls", "setting": "[4]; prey NHERF2, PBM peptide bait", "result": 0.9}, {"measurement": "Enrichment values compared to biotin controls", "setting": "[4]; prey NHERF3, PBM peptide bait", "result": 0.9}, {"measurement": "Enrichment values compared to biotin controls", "setting": "[4]; prey PDLIM5, PBM peptide bait", "result": 0.8}, {"measurement": "Enrichment values compared to biotin controls", "setting": "[4]; prey PDLIM7, PBM peptide bait", "result": 0.9}, {"measurement": "Enrichment values compared to biotin controls", "setting": "[4]; prey PSMD9, PBM peptide bait", "result": 0.6}, {"measurement": "Enrichment values compared to biotin controls", "setting": "[4]; prey SCRIB, PBM peptide bait", "result": 217.5}, {"measurement": "Enrichment values compared to biotin controls", "setting": "[4]; prey SIPA1L1, PBM peptide bait", "result": 0.5}, {"measurement": "Enrichment values compared to biotin controls", "setting": "[4]; prey SNTA1, PBM peptide bait", "result": 0.5}, {"measurement": "Enrichment values compared to biotin controls", "setting": "[4]; prey SNTB1, PBM peptide bait", "result": 8.8}, {"measurement": "Enrichment values compared to biotin controls", "setting": "[4]; prey SNTB2, PBM peptide bait", "result": 48.7}, {"measurement": "Enrichment values compared to biotin controls", "setting": "[4]; prey SNX27, PBM peptide bait", "result": 1.4}, {"measurement": "Enrichment values compared to biotin controls", "setting": "[4]; prey SYNJ2BP, PBM peptide bait", "result": 63.6}, {"measurement": "Fold changes HeLa, SYNJ2BP", "setting": "[4]; prey SYNJ2BP, PBM peptide bait", "result": 63.6}, {"measurement": "Enrichment values compared to biotin controls", "setting": "[4]; prey TJP1, PBM peptide bait", "result": 0.9}, {"measurement": "Enrichment values compared to biotin controls", "setting": "[4]; prey TX1B3, PBM peptide bait", "result": 15.3}]}]}
